In ChEMBL document CHEMBL4765494, “A role of flavonoids in cytochrome c-cardiolipin interactions” (Bioorg Med Chem, 2021):

Key:
[1] = target: Cytochrome c (Homo sapiens) (UniProt P99999); experiment: Inhibition of cytochrome c (unknown origin) assessed as reduction in cyt c-CL complex formation at 10 uM incubated for 15 mins in presence of cardiolipin by Trp-59 fluorescence assay relative to control
[2] = target: Cytochrome c (Homo sapiens) (UniProt P99999)
Description: Inhibition of cytochrome c (unknown origin) assessed as half-time reaction

[3] = Octanol-water distribution coefficient, log D of the compound at pH 7.4 after 1 hr by UV-VIS spectroscopic analysis; format: physicochemical
[4] = target: Cytochrome c (Homo sapiens) (UniProt P99999); experiment: Inhibition of cytochrome c (unknown origin) assessed as reduction in cyt c-CL peroxidase activity at 10 uM up to 20 mins in presence of cardiolipin by Amplex red staining based fluorescence assay relative to control; details: time min <=20
[5] = target: Cytochrome c (Homo sapiens) (UniProt P99999); experiment: Inhibition of cytochrome c (unknown origin) assessed as reduction reduction of cyt c from its ferric state to ferrous state at 10 uM incubated for 20 mins in presence of cardiolipin by UV-vis Spectrophotometric assay relative to control
[6] = target: Cytochrome c (Homo sapiens) (UniProt P99999); experiment: Inhibition of cytochrome c (unknown origin) assessed as reduction reduction of cyt c from its ferric state to ferrous state incubated for 20 mins in presence of cardiolipin by UV-vis Spectrophotometric assay
[7] = target: Cytochrome c (Homo sapiens) (UniProt P99999); experiment: Inhibition of cytochrome c (unknown origin) assessed as pseudo first order rate constant

Cytochrome c (Homo sapiens), sequence (P99999 whole entry): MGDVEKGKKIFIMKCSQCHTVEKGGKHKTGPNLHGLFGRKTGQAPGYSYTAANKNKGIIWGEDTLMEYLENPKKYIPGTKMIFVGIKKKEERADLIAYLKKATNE

## O=C(O[C@@H]1Cc2c(O)cc(O)cc2O[C@@H]1c1cc(O)c(O)c(O)c1)c1cc(O)c(O)c(O)c1 [EPIGALOCATECHIN GALLATE]
[1]
  inhibition: 63%
[2]
  T1/2: 1.3 min
[3]
  logD at 1 h: 0.04
[4]
  inhibition: 50%
[5]
  inhibition: 62%

## COc1ccc([C@@H]2CC(=O)c3c(O)cc(O)cc3O2)cc1O [HESPERETIN]
[1]
  inhibition: 71%
[6]
  K: 0.1 M⁻¹ s⁻¹
[3]
  logD at 1 h: 2.22
[4]
  inhibition: 57%
[5]
  inhibition: 7.8%

## COc1ccc(-c2coc3cc(O)cc(O)c3c2=O)cc1 [BIOCHANIN]
[1]
  inhibition: 37%
[3]
  logD at 1 h: 2.82
[4]
  inhibition: 32%
[5]
  inhibition: 23%

## O=c1cc(-c2ccccc2)oc2ccccc12
[1]
  inhibition: 87%
[4]
  inhibition: 50%
[5]
  inhibition: 0%

## C[C@@H]1O[C@@H](OC[C@H]2O[C@@H](Oc3c(-c4ccc(O)c(O)c4)oc4cc(O)cc(O)c4c3=O)[C@H](O)[C@@H](O)[C@@H]2O)[C@H](O)[C@H](O)[C@H]1O [RUTIN]
[1]
  inhibition: 66%
[3]
  logD at 1 h: -0.67
[4]
  inhibition: 28%
[5]
  inhibition: 19%

## O=c1c(-c2ccc(O)cc2)coc2cc(O)ccc12
[4]
  inhibition: 43%
[5]
  inhibition: 5.8%

## O=c1cc(-c2ccccc2)oc2cc(O)c(O)c(O)c12 [BAICALEIN]
[1]
  inhibition: 91%
[3]
  logD at 1 h: 2.51
[4]
  inhibition: 71%
[5]
  inhibition: 79%

## O=C1c2c(O)cc(O)cc2O[C@H](c2ccc(O)c(O)c2)[C@H]1O [(+)-TAXIFOLIN]
[1]
  inhibition: 58%
[6]
  K: 1 M⁻¹ s⁻¹
[7]
  K: 0.067 min⁻¹
[3]
  logD at 1 h: 0.67
[4]
  inhibition: 67%
[5]
  inhibition: 36%

## O=C1C[C@@H](c2ccccc2)Oc2ccccc21
[1]
  inhibition: 67%
[3]
  logD at 1 h: 2.95
[4]
  inhibition: 47%
[5]
  inhibition: 12%

## O=c1c(-c2ccc(O)cc2)coc2cc(O)cc(O)c12 [GENISTEIN]
[1]
  inhibition: 50%
[3]
  logD at 1 h: 2.68
[4]
  inhibition: 51%
[5]
  inhibition: 0%

## Oc1cc(O)c2c(c1)O[C@H](c1ccc(O)c(O)c1)[C@@H](O)C2 [CIANIDANOL]
[6]
  K: 2 M⁻¹ s⁻¹
[7]
  K: 0.13 min⁻¹
[3]
  logD at 1 h: 0.01
[4]
  inhibition: 90%
[5]
  inhibition: 61%

## C[C@@H]1O[C@@H](O[C@H]2[C@H](Oc3cc(O)c4c(c3)O[C@H](c3ccc(O)cc3)CC4=O)O[C@H](CO)[C@@H](O)[C@@H]2O)[C@H](O)[C@H](O)[C@H]1O [NARINGIN]
[1]
  inhibition: 81%
[3]
  logD at 1 h: -0.87
[4]
  inhibition: 54%
[5]
  inhibition: 27%

## O=C1C[C@@H](c2ccc(O)cc2)Oc2cc(O)cc(O)c21 [NARINGENIN]
[1]
  inhibition: 60%
[6]
  K: 0.002 M⁻¹ s⁻¹
[3]
  logD at 1 h: 2.35
[4]
  inhibition: 46%
[5]
  inhibition: 7.3%

## O=c1c(O)c(-c2cc(O)c(O)c(O)c2)oc2cc(O)cc(O)c12 [MYRICETIN]
[1]
  inhibition: 91%
[6]
  K: 1030 M⁻¹ s⁻¹
[2]
  T1/2: 0.08 min
[3]
  logD at 1 h: 0.91
[4]
  inhibition: 81%
[5]
  inhibition: 90%

## O=c1c(O)c(-c2ccc(O)cc2)oc2cc(O)cc(O)c12 [KAEMPFEROL]
[1]
  inhibition: 83%
[6]
  K: 92 M⁻¹ s⁻¹
[2]
  T1/2: 1.2 min
[3]
  logD at 1 h: 3.39
[4]
  inhibition: 70%
[5]
  inhibition: 83%

## O=c1cc(-c2ccc(O)c(O)c2)oc2cc(O)cc(O)c12 [LUTEOLIN]
[1]
  inhibition: 84%
[2]
  T1/2: 11 min
[7]
  K: 0.033 min⁻¹
[3]
  logD at 1 h: 2.7
[4]
  inhibition: 71%
[5]
  inhibition: 32%

## O=c1c(O)c(-c2ccc(O)c(O)c2)oc2cc(O)ccc12 [FISETIN]
[1]
  inhibition: 85%
[6]
  K: 220 M⁻¹ s⁻¹
[3]
  logD at 1 h: 2.29
[4]
  inhibition: 81%
[5]
  inhibition: 73%
